Laboratory results taken from ChEMBL document CHEMBL5055672, “Design, Synthesis, Biological Evaluation, and Computational Studies of Novel Fluorinated Candidates as PI3K Inhibitors: Targeting Fluorophilic Binding Sites” (J Med Chem, 2021).

Legend:
[1] = tested on: CCRF-CEM; assay: Cytotoxicity against human CCRF-CEM cells assessed as growth inhibition at 10 uM after 48 hrs by sulforhodamine B assay; assay type: functional; settings: read-out: GI
[2] = tested on: UO-31; assay: Cytotoxicity against human UO-31 cells assessed as growth inhibition at 10 uM after 48 hrs by sulforhodamine B assay; assay type: functional; settings: read-out: GI
[3] = tested on: BT-549; assay: Cytotoxicity against human BT-549 cells assessed as growth inhibition at 10 uM after 48 hrs by sulforhodamine B assay; assay type: functional; settings: read-out: GI
[4] = tested on: Malme-3M; assay: Cytotoxicity against human MALME-3M cells assessed as growth inhibition at 10 uM after 48 hrs by sulforhodamine B assay; assay type: functional; settings: read-out: GI
[5] = tested on: MCF-10A; assay: Cytotoxicity against human MCF10A cells assessed as inhibition of cell growth incubated for 48 hrs by MTT assay; assay type: cell-based
[6] = tested on: MCF7; assay: Antiproliferative activity against human MCF7 cells assessed as inhibition of cell growth incubated for 48 hrs by MTT assay; assay type: functional, cell-based; settings: MCF7, 48 h
[7] = Selectivity index, ratio of IC50 for human MCF-10A cells to IC50 for human MCF7 cells; assay type: toxicity; settings: MCF-10A cells versus MCF7 cells, read-out: Ratio IC50
[8] = tested on: MCF7; assay: Cytotoxicity against human MCF7 cells assessed as growth inhibition at 10 uM after 48 hrs by sulforhodamine B assay; assay type: functional; settings: read-out: GI
[9] = tested on: NCI-H522; assay: Cytotoxicity against human NCI-H522 cells assessed as growth inhibition at 10 uM after 48 hrs by sulforhodamine B assay; assay type: functional; settings: read-out: GI
[10] = tested on: EKVX; assay: Cytotoxicity against human EKVX cells assessed as growth inhibition at 10 uM after 48 hrs by sulforhodamine B assay; assay type: functional; settings: read-out: GI
[11] = tested on: T47D; assay: Cytotoxicity against human T47D cells assessed as growth inhibition at 10 uM after 48 hrs by sulforhodamine B assay; assay type: functional; settings: read-out: GI
[12] = tested on: NCI-H23; assay: Cytotoxicity against human NCI-H23 cells assessed as growth inhibition at 10 uM after 48 hrs by sulforhodamine B assay; assay type: functional; settings: read-out: GI
[13] = tested on: CAKI-1; assay: Cytotoxicity against human CAKI-1 cells assessed as growth inhibition at 10 uM after 48 hrs by sulforhodamine B assay; assay type: functional; settings: read-out: GI
[14] = tested on: UACC-62; assay: Cytotoxicity against human UACC-62 cells assessed as growth inhibition at 10 uM after 48 hrs by sulforhodamine B assay; assay type: functional; settings: read-out: GI
[15] = tested on: NCI/ADR-RES; assay: Cytotoxicity against human NCI-ADR-RES cells assessed as growth inhibition at 10 uM after 48 hrs by sulforhodamine B assay; assay type: functional; settings: read-out: GI
[16] = tested on: HL-60(TB); assay: Cytotoxicity against human HL-60(TB) cells assessed as growth inhibition at 10 uM after 48 hrs by sulforhodamine B assay; assay type: functional; settings: read-out: GI
[17] = tested on: MOLT-4; assay: Cytotoxicity against human MOLT-4 cells assessed as growth inhibition at 10 uM after 48 hrs by sulforhodamine B assay; assay type: functional; settings: read-out: GI
[18] = tested on: SNB-75; assay: Cytotoxicity against human SNB-75 cells assessed as growth inhibition at 10 uM after 48 hrs by sulforhodamine B assay; assay type: functional; settings: read-out: GI
[19] = tested on: SF-268; assay: Cytotoxicity against human SF-268 cells assessed as growth inhibition at 10 uM after 48 hrs by sulforhodamine B assay; assay type: functional; settings: read-out: GI
[20] = tested on: MDA-MB-468; assay: Cytotoxicity against human MDA-MB-468 cells assessed as growth inhibition at 10 uM after 48 hrs by sulforhodamine B assay; assay type: functional; settings: read-out: GI
[21] = Cytotoxicity against human Hs 578T cells assessed as growth inhibition at 10 uM after 48 hrs by sulforhodamine B assay; assay type: functional; settings: read-out: GI
[22] = tested on: U-251; assay: Cytotoxicity against human U-251 cells assessed as growth inhibition at 10 uM after 48 hrs by sulforhodamine B assay; assay type: functional; settings: read-out: GI
[23] = tested on: HOP-92; assay: Cytotoxicity against human HOP-92 cells assessed as growth inhibition at 10 uM after 48 hrs by sulforhodamine B assay; assay type: functional; settings: read-out: GI
[24] = tested on: K562; assay: Cytotoxicity against human K562 cells assessed as growth inhibition at 10 uM after 48 hrs by sulforhodamine B assay; assay type: functional; settings: read-out: GI
[25] = tested on: SF-539; assay: Cytotoxicity against human SF-539 cells assessed as growth inhibition at 10 uM after 48 hrs by sulforhodamine B assay; assay type: functional; settings: read-out: GI
[26] = tested on: HCT-116; assay: Cytotoxicity against human HCT-116 cells assessed as growth inhibition at 10 uM after 48 hrs by sulforhodamine B assay; assay type: functional; settings: read-out: GI
[27] = tested on: SR; assay: Cytotoxicity against human SR cells assessed as growth inhibition at 10 uM after 48 hrs by sulforhodamine B assay; assay type: functional; settings: read-out: GI
[28] = tested on: OVCAR-8; assay: Cytotoxicity against human OVCAR8 cells assessed as growth inhibition at 10 uM after 48 hrs by sulforhodamine B assay; assay type: functional; settings: read-out: GI
[29] = tested on: SN12C; assay: Cytotoxicity against human SN12C cells assessed as growth inhibition at 10 uM after 48 hrs by sulforhodamine B assay; assay type: functional; settings: read-out: GI
[30] = tested on: MDA-MB-231; assay: Cytotoxicity against human MDA-MB-231 cells assessed as growth inhibition at 10 uM after 48 hrs by sulforhodamine B assay; assay type: functional; settings: read-out: GI
[31] = tested on: ACHN; assay: Cytotoxicity against human ACHN cells assessed as growth inhibition at 10 uM after 48 hrs by sulforhodamine B assay; assay type: functional; settings: read-out: GI
[32] = tested on: A549; assay: Cytotoxicity against human A549 cells assessed as growth inhibition at 10 uM after 48 hrs by sulforhodamine B assay; assay type: functional; settings: read-out: GI
[33] = tested on: HOP-62; assay: Cytotoxicity against human HOP-62 cells assessed as growth inhibition at 10 uM after 48 hrs by sulforhodamine B assay; assay type: functional; settings: read-out: GI
[34] = tested on: 786-0; assay: Cytotoxicity against human 786-0 cells assessed as growth inhibition at 10 uM after 48 hrs by sulforhodamine B assay; assay type: functional; settings: read-out: GI
[35] = tested on: SF-295; assay: Cytotoxicity against human SF-295 cells assessed as growth inhibition at 10 uM after 48 hrs by sulforhodamine B assay; assay type: functional; settings: read-out: GI
[36] = tested on: SNB-19; assay: Cytotoxicity against human SNB-19 cells assessed as growth inhibition at 10 uM after 48 hrs by sulforhodamine B assay; assay type: functional; settings: read-out: GI
[37] = tested on: LOX IMVI; assay: Cytotoxicity against human LOX IMVI cells assessed as growth inhibition at 10 uM after 48 hrs by sulforhodamine B assay; assay type: functional; settings: read-out: GI

SMILES: O=S(=O)(Oc1ccc(-c2nnc(Nc3ccccc3)s2)cc1)C(F)(F)C(F)(F)C(F)(F)C(F)(F)C(F)(F)C(F)(F)C(F)(F)C(F)(F)F
- inhibition of growth at 10 µM [1]: 12.1%
- inhibition of growth at 10 µM [2]: 19.4%
- inhibition of growth at 10 µM [3]: 12.9%
- inhibition of growth at 10 µM [4]: 11.7%

SMILES: COc1cc([C@@H]2c3cc4c(cc3[C@@H](O[C@@H]3O[C@@H]5CO[C@@H](C)O[C@H]5[C@H](O)[C@H]3O)[C@H]3COC(=O)[C@H]23)OCO4)cc(OC)c1O [ETOPOSIDE]
- IC50 [5]: 84.7 µM
- IC50 [6]: 12.6 µM
- selectivity ratio [7]: 3.86

SMILES: COc1cccc2c1C(=O)c1c(O)c3c(c(O)c1C2=O)C[C@@](O)(C(=O)CO)C[C@@H]3O[C@H]1C[C@H](N)[C@H](O)[C@H](C)O1 [DOXORUBICIN]
- IC50 [5]: 19 µM

SMILES: FC(F)(F)COc1ccc(/C=N/N=c2\scc(-c3ccccc3)n2-c2ccccc2)cc1
- inhibition of growth at 10 µM [8]: 53.4%

SMILES: O=S(=O)(Oc1ccc(/C=N/NC(=S)Nc2ccccc2)cc1)C(F)(F)C(F)(F)C(F)(F)C(F)(F)C(F)(F)C(F)(F)C(F)(F)C(F)(F)F
- inhibition of growth at 10 µM [9]: 10.1%
- inhibition of growth at 10 µM [2]: 13.3%

SMILES: FC(F)(F)c1ccc(/C=N/NC(=S)Nc2ccccc2)cc1
- inhibition of growth at 10 µM [10]: 10.3%

SMILES: O=S(=O)(Oc1ccc(/C=N/N=c2\scc(-c3ccccc3)n2-c2ccccc2)cc1)C(F)(F)C(F)(F)C(F)(F)C(F)(F)C(F)(F)C(F)(F)F
- inhibition of growth at 10 µM [8]: 43.5%

SMILES: COC(=O)/C=C1\S/C(=N\N=C\c2ccc(C(F)(F)F)cc2)N(c2ccccc2)C1=O
- inhibition of growth at 10 µM [11]: 20.4%
- inhibition of growth at 10 µM [12]: 10.1%
- inhibition of growth at 10 µM [13]: 28%
- inhibition of growth at 10 µM [14]: 18.4%
- inhibition of growth at 10 µM [15]: 11.5%
- inhibition of growth at 10 µM [16]: 16.7%
- inhibition of growth at 10 µM [17]: 12.8%
- inhibition of growth at 10 µM [18]: 39.3%
- inhibition of growth at 10 µM [19]: 19.8%
- inhibition of growth at 10 µM [20]: 24.6%
- inhibition of growth at 10 µM [21]: 37.6%
- inhibition of growth at 10 µM [22]: 29.2%
- inhibition of growth at 10 µM [23]: 12%
- inhibition of growth at 10 µM [24]: 21.4%
- inhibition of growth at 10 µM [25]: 21%
- inhibition of growth at 10 µM [26]: 32.4%
- inhibition of growth at 10 µM [8]: 25.2%
- inhibition of growth at 10 µM [27]: 19.6%
- inhibition of growth at 10 µM [2]: 18.3%
- inhibition of growth at 10 µM [28]: 26.6%
- inhibition of growth at 10 µM [29]: 24.1%
- inhibition of growth at 10 µM [30]: 19.8%
- inhibition of growth at 10 µM [3]: 13.6%
- inhibition of growth at 10 µM [31]: 40.1%
- inhibition of growth at 10 µM [32]: 12.4%
- inhibition of growth at 10 µM [33]: 36.6%
- inhibition of growth at 10 µM [34]: 11.1%
- inhibition of growth at 10 µM [35]: 16.6%
- inhibition of growth at 10 µM [36]: 25.8%
- inhibition of growth at 10 µM [37]: 19.9%
